A word on the EC50: it is the concentration that produces a half-maximal response. The Emax is the maximal effect, on the per cent scale that the assay sets.

SMILES strings stand for the structures. Where “and” joins values, the source holds several entries; their conditions need not be identical. Identical values can stand only once. Counter-ions that a name gives are not always drawn.

One assay concerns the target T1, 5-HT2AR S159A-mutated receptor (Homo sapiens, UniProt P28223, S159A).
T1 construct: expressed in transfected cells; host or cells: HEK 293T (transient transfection); mutant made by site-directed mutagenesis of 5-HT2AR-LgBiT
Briefly: cell-based. The format is cell-based.
Conditions: not given
Target sequence in this assay (P28223 whole entry S159A): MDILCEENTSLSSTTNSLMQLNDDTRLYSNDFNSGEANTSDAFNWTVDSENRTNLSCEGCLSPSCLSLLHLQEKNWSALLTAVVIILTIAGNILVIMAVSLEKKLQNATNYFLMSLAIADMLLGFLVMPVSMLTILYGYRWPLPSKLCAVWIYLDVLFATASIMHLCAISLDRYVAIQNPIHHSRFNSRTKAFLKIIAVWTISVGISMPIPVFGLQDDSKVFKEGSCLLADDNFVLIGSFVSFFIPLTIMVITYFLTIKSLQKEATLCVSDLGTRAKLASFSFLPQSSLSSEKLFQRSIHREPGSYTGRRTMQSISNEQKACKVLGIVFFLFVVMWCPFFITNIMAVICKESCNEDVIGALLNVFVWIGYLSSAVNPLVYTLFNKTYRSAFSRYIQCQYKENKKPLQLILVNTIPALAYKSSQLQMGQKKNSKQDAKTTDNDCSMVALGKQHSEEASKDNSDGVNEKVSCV
Target sequence in this assay (P32121 whole entry partner): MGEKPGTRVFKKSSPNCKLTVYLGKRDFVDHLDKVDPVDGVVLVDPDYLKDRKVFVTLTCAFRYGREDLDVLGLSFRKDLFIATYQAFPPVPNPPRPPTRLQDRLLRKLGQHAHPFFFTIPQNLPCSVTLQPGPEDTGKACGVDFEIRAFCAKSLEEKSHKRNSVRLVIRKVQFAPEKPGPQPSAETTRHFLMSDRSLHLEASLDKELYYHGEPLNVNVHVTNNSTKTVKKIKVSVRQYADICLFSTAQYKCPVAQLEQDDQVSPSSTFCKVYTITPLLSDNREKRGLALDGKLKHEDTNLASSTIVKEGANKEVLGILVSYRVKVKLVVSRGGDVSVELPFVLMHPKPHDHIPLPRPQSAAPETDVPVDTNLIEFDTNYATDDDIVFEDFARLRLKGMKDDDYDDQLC
As for `COc1cc(CCNCc2ccccc2F)c(OC)cc1C#N` [6c, 4-(2-((2-Fluorobenzyl)amino)ethyl)-2,5-dimethoxybenzonitrile Hydrochloride], the “Reduction of agonist potency at 5-HT2AR S159A compared to WT, βarr2 recruitment assay” value came to 12 fold; the “β-arr2 Emax (%) [CI]” value is 86.6 [81.5–92.0] % and 113%.

In the case of `COc1cc(CCNCc2cccc(O)c2)c(OC)cc1C#N` [6e, 4-(2-((3-Hydroxybenzyl)amino)ethyl)-2,5-dimethoxybenzonitrile Hydrochloride], the “Reduction of agonist potency at 5-HT2AR S159A compared to WT, βarr2 recruitment assay” value was roughly 10 fold and the “β-arr2 Emax (%) [CI]” value was 84.1%.

`CCN(CC)C(=O)[C@@H]1C=C2c3cccc4[nH]cc(c34)C[C@H]2N(C)C1` [LSD, lysergic acid diethylamide, reference compound]: the “β-arr2 Emax (%) [CI]” value was 99.9 [93.7–106] % and 128%.

Still in this assay, the particulars now being: read-out: β-arr2 EC50 (nM) [CI].
With `COc1cc(CCNCc2ccccc2F)c(OC)cc1C#N` [6c, 4-(2-((2-Fluorobenzyl)amino)ethyl)-2,5-dimethoxybenzonitrile Hydrochloride], the EC50 was 661 nM and 645 nM.

Consider `COc1cc(CCNCc2cccc(O)c2)c(OC)cc1C#N` [6e, 4-(2-((3-Hydroxybenzyl)amino)ethyl)-2,5-dimethoxybenzonitrile Hydrochloride], for which the EC50 is 939 nM and 938 nM.

Still in this assay, the particulars now being: read-out: β-arr2 Emax (%) [CI].
For `COc1cc(CCNCc2cccc(O)c2)c(OC)cc1C#N` [6e, 4-(2-((3-Hydroxybenzyl)amino)ethyl)-2,5-dimethoxybenzonitrile Hydrochloride], the Emax was 68.2%.

Another assay concerns the target T2, 5-HT2AR (Homo sapiens, UniProt P28223).
T2 construct: expressed in transfected cells; host or cells: HEK 293T (transient transfection)
The assay is described as follows: cell-based. The format is cell-based.
Conditions: not given
Target sequence in this assay (P28223 whole entry): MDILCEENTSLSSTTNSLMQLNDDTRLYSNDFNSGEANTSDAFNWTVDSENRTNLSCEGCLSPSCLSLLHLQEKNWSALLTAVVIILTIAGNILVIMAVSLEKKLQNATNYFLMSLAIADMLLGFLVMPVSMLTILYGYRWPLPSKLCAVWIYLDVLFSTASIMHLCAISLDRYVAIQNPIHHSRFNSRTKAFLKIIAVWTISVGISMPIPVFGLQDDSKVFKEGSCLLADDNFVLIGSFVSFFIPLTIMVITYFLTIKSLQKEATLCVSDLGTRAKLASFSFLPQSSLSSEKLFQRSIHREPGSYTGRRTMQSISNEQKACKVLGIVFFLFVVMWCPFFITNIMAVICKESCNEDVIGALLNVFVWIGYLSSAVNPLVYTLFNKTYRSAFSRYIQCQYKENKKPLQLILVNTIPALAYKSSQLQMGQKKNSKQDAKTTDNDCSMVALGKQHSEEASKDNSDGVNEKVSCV
In turn, `COc1cc(CCNC2COc3ccccc32)c(OC)cc1Br` (racemic) [(±)-4c, (±)-N-(4-Bromo-2,5-dimethoxyphenethyl)-2,3-dihydrobenzofuran-3-amine Hydrochloride] displayed an EC50 of 24.5 nM.

The assay is the same for the next values; noted with them: read-out: miniGαq EC50 (nM) [CI].
Consider `COc1cc(CCNC2COc3ccccc32)c(OC)cc1Br` (racemic) [(±)-4c, (±)-N-(4-Bromo-2,5-dimethoxyphenethyl)-2,3-dihydrobenzofuran-3-amine Hydrochloride], for which the EC50 amounted to 23 nM.

Turning to `COc1cc(CCNC2CCOc3ccccc32)c(OC)cc1Br` (racemic) [(±)-4d, (±)-N-(4-Bromo-2,5-dimethoxyphenethyl)chroman-4-amine Hydrochloride], the EC50 was 174 nM and 168 nM.

`COc1cc(CCNCc2ccccc2OC)c(OC)cc1C#N` [6b, 2,5-Dimethoxy-4-(2-((2-methoxybenzyl)amino)ethyl)benzonitrile Hydrochloride]: the EC50 is 6.7 nM and 6.71 nM and 6.53 nM.

Regarding `COc1cc(CCNCc2ccccc2F)c(OC)cc1C#N` [6c, 4-(2-((2-Fluorobenzyl)amino)ethyl)-2,5-dimethoxybenzonitrile Hydrochloride], the EC50 is 168 nM and 164 nM.

On to `COc1cc(CCNCc2cccc3c2OCO3)c(OC)cc1C#N` [6d, 4-(2-((Benzo[d][1,3]dioxol-4-ylmethyl)amino)ethyl)-2,5-dimethoxybenzonitrile Hydrochloride], for which the EC50 was 45.1 nM and 47.3 nM.

Turning to `COc1cc(CCNCc2cccc(O)c2)c(OC)cc1C#N` [6e, 4-(2-((3-Hydroxybenzyl)amino)ethyl)-2,5-dimethoxybenzonitrile Hydrochloride], the EC50 is 301 nM and 299 nM.

The test system of another assay is 5-HT2AR over 5-HT2CR.
Assay: not given
As to conditions: cited from earlier work.
`COc1cc(CC2CCCC(c3ccccc3OC)N2)c(OC)cc1Br` [(S,S)-DMBMPP]: the “Selectivity over 5-HT2CR” value is 124 fold.

Another assay concerns 5-HT2AR S159A-mutated receptor. The assay is described as follows: cell-based. The format is cell-based, human.
Conditions: not given
In the case of `COc1cc(CCNCc2ccccc2F)c(OC)cc1C#N` [6c, 4-(2-((2-Fluorobenzyl)amino)ethyl)-2,5-dimethoxybenzonitrile Hydrochloride], the “Reduction of agonist potency at 5-HT2AR S159A compared to WT, miniGαq recruitment assay” value is on record as 7 fold.

As to `COc1cc(CCNCc2cccc(O)c2)c(OC)cc1C#N` [6e, 4-(2-((3-Hydroxybenzyl)amino)ethyl)-2,5-dimethoxybenzonitrile Hydrochloride], the “Reduction of agonist potency at 5-HT2AR S159A compared to WT, miniGαq recruitment assay” value is given as 6.9 fold.

The next assay addresses T1, 5-HT2AR S159A-mutated receptor. Briefly: cell-based. Format: cell-based.
Conditions: not given
This is another data set of the same source.
Target sequence in this assay (P28223 whole entry S159A): as the sequence (P28223 whole entry S159A) above
The molecule `COc1cc(CCNCc2ccccc2F)c(OC)cc1C#N` [6c, 4-(2-((2-Fluorobenzyl)amino)ethyl)-2,5-dimethoxybenzonitrile Hydrochloride] came in with an EC50 of 899 nM.

For the molecule `COc1cc(CCNCc2cccc(O)c2)c(OC)cc1C#N` [6e, 4-(2-((3-Hydroxybenzyl)amino)ethyl)-2,5-dimethoxybenzonitrile Hydrochloride], the “miniGαq Emax (%) [CI]” value turned out to be 22.9%.

Still in this assay, the particulars now being: read-out: miniGαq EC50 (nM) [CI].
Consider `COc1cc(CCNCc2ccccc2F)c(OC)cc1C#N` [6c, 4-(2-((2-Fluorobenzyl)amino)ethyl)-2,5-dimethoxybenzonitrile Hydrochloride], for which the EC50 turned out to be 1130 nM.

Regarding `COc1cc(CCNCc2cccc(O)c2)c(OC)cc1C#N` [6e, 4-(2-((3-Hydroxybenzyl)amino)ethyl)-2,5-dimethoxybenzonitrile Hydrochloride], the EC50 worked out at 2060 nM.

Staying with this assay, now noted: read-out: miniGαq Emax (%) [CI].
With `COc1cc(CCNCc2cccc(O)c2)c(OC)cc1C#N` [6e, 4-(2-((3-Hydroxybenzyl)amino)ethyl)-2,5-dimethoxybenzonitrile Hydrochloride], the Emax is 12.9%.

For another assay, the system named is 5-HT2AR S159A-mutated receptor. Briefly: Bias factor (βarr2 vs miniGαq recruitment), intrinsic relative activity approach, S159A mutated 5-HT2AR. The format is cell-based, human. As to conditions: 5-HT2A-S159A; referenced with 5-HT; from the combined EC50 and Emax values.
Description: The resulting data were analyzed as described before in more detail.[55] In brief, the obtained time–luminescence profiles are corrected for interwell variability and used for the calculation of the area under the curve (AUC), from which the AUC of the corresponding solvent control is subtracted. Data are then normalized using GraphPad Prism software (San Diego, CA), where the maximal response of the reference agonist is arbitrarily set at 100%. After pooling the data of the individual experiments, the potency and efficacy values are calculated in GraphPad Prism through three parametric nonlinear regression analysis. To quantify the tendency of the measured substances toward preferentially inducing one pathway or the other, bias factors are calculated via the “intrinsic relative activity approach.[56],[57] In this approach, an RAi value is calculated for each substance in each of the measured assays, relative to a reference agonist, using the following formula [drawing 1] The obtained values for the respective pathways are then combined into a bias factor, βi [drawing 2] This formula implies that the value of βi for the reference agonist is 0. A positive bias factor indicates a preference toward the recruitment of βarr2 over miniGαq, compared to the respective reference agonist. A negative bias factor then points to a relative preference toward the recruitment of miniGαq over βarr2. To assess whether the obtained bias factors are statistically significant from 0, a Kruskal–Wallis analysis (which is the nonparametric counterpart of one-way analysis of variance (ANOVA), selected a priori to avoid presumptuous conclusions) with post hoc Dunn’s multiple comparison was carried out in GraphPad Prism. To qualitatively visualize the possible preference of a certain substance towards recruiting either one cytosolic protein or the other, bias plots were generated via GraphPad Prism. To this end, the normalized AUC values obtained in the βarr2 assay are plotted on the x-axis, and those obtained in the miniGαq assay are plotted on the y-axis. On each plot, both the respective reference agonist and one substance of interest are plotted, and a curve is fitted through the centered second-order (quadratic) polynomial fitting.[58]
Turning to `COc1cc(CCNCc2ccccc2F)c(OC)cc1C#N` [6c, 4-(2-((2-Fluorobenzyl)amino)ethyl)-2,5-dimethoxybenzonitrile Hydrochloride], the “Alternative β-factor” value stood at 0.237.

`COc1cc(CCNCc2cccc(O)c2)c(OC)cc1C#N` [6e, 4-(2-((3-Hydroxybenzyl)amino)ethyl)-2,5-dimethoxybenzonitrile Hydrochloride]: the “Alternative β-factor” value turned out to be 0.577.

Still in this assay, the particulars now being: 5-HT2A-S159A; referenced with LSD; from the combined EC50 and Emax values.
`COc1cc(CCNCc2ccccc2F)c(OC)cc1C#N` [6c, 4-(2-((2-Fluorobenzyl)amino)ethyl)-2,5-dimethoxybenzonitrile Hydrochloride]: the “Alternative β-factor” value was 0.842.

For `COc1cc(CCNCc2cccc(O)c2)c(OC)cc1C#N` [6e, 4-(2-((3-Hydroxybenzyl)amino)ethyl)-2,5-dimethoxybenzonitrile Hydrochloride], the “Alternative β-factor” value is 1.050.

Staying with this assay, now noted: 5-HT2A-S159A; relative to LSD; average of three experiments.
Molecule `COc1cc(CCNCc2ccccc2F)c(OC)cc1C#N` [6c, 4-(2-((2-Fluorobenzyl)amino)ethyl)-2,5-dimethoxybenzonitrile Hydrochloride] showed a β-factor of 0.731.

`CCN(CC)C(=O)[C@@H]1C=C2c3cccc4[nH]cc(c34)C[C@H]2N(C)C1` [LSD, lysergic acid diethylamide, reference compound]: the β-factor was 0.

The same assay, now with this note: 5-HT2A-S159A; relative to serotonin (5-HT); average of three experiments.
On to `COc1cc(CCNCc2ccccc2F)c(OC)cc1C#N` [6c, 4-(2-((2-Fluorobenzyl)amino)ethyl)-2,5-dimethoxybenzonitrile Hydrochloride], for which the β-factor turned out to be 0.186.

Consider `CCN(CC)C(=O)[C@@H]1C=C2c3cccc4[nH]cc(c34)C[C@H]2N(C)C1` [LSD, lysergic acid diethylamide, reference compound], for which the β-factor was -0.533.

The target in another assay is T2, 5-HT2AR. The assay is described as follows: cell-based. The format is cell-based.
Conditions: not given
The source holds these as a separate data set.
Target sequence in this assay (P32121 whole entry): as the sequence (P32121 whole entry partner) above
Target sequence in this assay (P28223 whole entry): as the sequence (P28223 whole entry) above
For the molecule `COc1cc(CCNC2COc3ccccc32)c(OC)cc1Br` (racemic) [(±)-4c, (±)-N-(4-Bromo-2,5-dimethoxyphenethyl)-2,3-dihydrobenzofuran-3-amine Hydrochloride], the “β-arr2 Emax (%) [CI]” value worked out at 85.5%.

On to `COc1cc(CCNC2CCOc3ccccc32)c(OC)cc1Br` (racemic) [(±)-4d, (±)-N-(4-Bromo-2,5-dimethoxyphenethyl)chroman-4-amine Hydrochloride], for which the “β-arr2 Emax (%) [CI]” value was 108%.

`COc1cc(CCNCc2ccccc2OC)c(OC)cc1C#N` [6b, 2,5-Dimethoxy-4-(2-((2-methoxybenzyl)amino)ethyl)benzonitrile Hydrochloride]: the “β-arr2 Emax (%) [CI]” value is reported as 148%.

With `COc1cc(CCNCc2ccccc2F)c(OC)cc1C#N` [6c, 4-(2-((2-Fluorobenzyl)amino)ethyl)-2,5-dimethoxybenzonitrile Hydrochloride], the “β-arr2 Emax (%) [CI]” value is listed as 105%.

As to `COc1cc(CCNCc2cccc3c2OCO3)c(OC)cc1C#N` [6d, 4-(2-((Benzo[d][1,3]dioxol-4-ylmethyl)amino)ethyl)-2,5-dimethoxybenzonitrile Hydrochloride], the “β-arr2 Emax (%) [CI]” value is listed as 106%.

Regarding `COc1cc(CCNCc2cccc(O)c2)c(OC)cc1C#N` [6e, 4-(2-((3-Hydroxybenzyl)amino)ethyl)-2,5-dimethoxybenzonitrile Hydrochloride], the “β-arr2 Emax (%) [CI]” value was found to be 97.5%.

For `CCN(CC)C(=O)[C@@H]1C=C2c3cccc4[nH]cc(c34)C[C@H]2N(C)C1` [LSD, lysergic acid diethylamide, reference compound], the “β-arr2 Emax (%) [CI]” value is 90.7%.

Staying with this assay, now noted: HEK-293T, read-out: β-arr2 Emax (%) [CI].
With `COc1cc(CCNC2COc3ccccc32)c(OC)cc1Br` (racemic) [(±)-4c, (±)-N-(4-Bromo-2,5-dimethoxyphenethyl)-2,3-dihydrobenzofuran-3-amine Hydrochloride], the Emax turned out to be 96.6%.

Regarding `COc1cc(CCNC2CCOc3ccccc32)c(OC)cc1Br` (racemic) [(±)-4d, (±)-N-(4-Bromo-2,5-dimethoxyphenethyl)chroman-4-amine Hydrochloride], the Emax worked out at 121%.

`COc1cc(CCNCc2ccccc2OC)c(OC)cc1C#N` [6b, 2,5-Dimethoxy-4-(2-((2-methoxybenzyl)amino)ethyl)benzonitrile Hydrochloride]: the Emax was determined as 161%.

Regarding `COc1cc(CCNCc2ccccc2F)c(OC)cc1C#N` [6c, 4-(2-((2-Fluorobenzyl)amino)ethyl)-2,5-dimethoxybenzonitrile Hydrochloride], the Emax was found to be 114%.

In the case of `COc1cc(CCNCc2cccc3c2OCO3)c(OC)cc1C#N` [6d, 4-(2-((Benzo[d][1,3]dioxol-4-ylmethyl)amino)ethyl)-2,5-dimethoxybenzonitrile Hydrochloride], the Emax is 114%.

As for `COc1cc(CCNCc2cccc(O)c2)c(OC)cc1C#N` [6e, 4-(2-((3-Hydroxybenzyl)amino)ethyl)-2,5-dimethoxybenzonitrile Hydrochloride], the maximal response (Emax) is 106%.

`CCN(CC)C(=O)[C@@H]1C=C2c3cccc4[nH]cc(c34)C[C@H]2N(C)C1` [LSD, lysergic acid diethylamide, reference compound]: the Emax stood at 99.7%.

The same assay, now with this note: read-out: β-arr2 EC50 (nM) [CI].
For `COc1cc(CCNC2CCOc3ccccc32)c(OC)cc1Br` (racemic) [(±)-4d, (±)-N-(4-Bromo-2,5-dimethoxyphenethyl)chroman-4-amine Hydrochloride], the EC50 was 132 nM and 134 nM.

`COc1cc(CCNCc2ccccc2OC)c(OC)cc1C#N` [6b, 2,5-Dimethoxy-4-(2-((2-methoxybenzyl)amino)ethyl)benzonitrile Hydrochloride]: the EC50 is 1.9 nM and 1.93 nM and 1.94 nM.

Regarding `COc1cc(CCNCc2ccccc2F)c(OC)cc1C#N` [6c, 4-(2-((2-Fluorobenzyl)amino)ethyl)-2,5-dimethoxybenzonitrile Hydrochloride], the EC50 is 53.2 nM and 53.3 nM.

In the case of `COc1cc(CCNCc2cccc3c2OCO3)c(OC)cc1C#N` [6d, 4-(2-((Benzo[d][1,3]dioxol-4-ylmethyl)amino)ethyl)-2,5-dimethoxybenzonitrile Hydrochloride], the EC50 is 17 nM and 17.1 nM.

Regarding `COc1cc(CCNCc2cccc(O)c2)c(OC)cc1C#N` [6e, 4-(2-((3-Hydroxybenzyl)amino)ethyl)-2,5-dimethoxybenzonitrile Hydrochloride], the EC50 was determined as 84.5 nM.

Still in this assay, the particulars now being: β-arr2 EC50 (nM) [CI].
Consider `COc1cc(CCNC2COc3ccccc32)c(OC)cc1Br` (racemic) [(±)-4c, (±)-N-(4-Bromo-2,5-dimethoxyphenethyl)-2,3-dihydrobenzofuran-3-amine Hydrochloride], for which the EC50 is 28.6 nM and 28.7 nM.

Values taken from publication PMC9511481 (Journal of Medicinal Chemistry, 2022).
